Patent US12421253B2 (Mirati Therapeutics, Inc., priority 2020, dated 2025)

Columns and labels:
KRas^G12V = target: T1, KRas^G12V (Homo sapiens, UniProt P01116, G12V); assay: KRas binding assay (TR-FRET displacement of Cy5 labelled tracer)
T1 construct: […]; biotin (biotinylated); purchased Accelegan Inc
Procedure: (§6) The ability of a compound to bind to KRas was measured using a TR-FRET displacement assay. […] After a 60-minute incubation at room temperature, the reaction was measured using a BMG LABTECH CLARIO star Plus via TR-FRET. […] The POC values were fit to a 4-parameter IC50 equation and the IC50 value reported.

PSN1 cells, pERK = assay: Inhibition of KRas phosphorylation of ERK (Cisbio HTRF Advanced pERK assay); type: cell-based; conditions: Homo sapiens, PSN1, 3 h, read-out: Inhibition (HTRF IC50 nM) of KRas-mediated Phosphorylation of ERK, PSN1
In short: (§1)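 Cells were seeded overnight in RPMI with 10% FBS, then treated for 3 h at 37 °C with 10-dose, 3-fold compound titrations from 10 uM (0.8% DMSO final). After lysis at 4 °C, phospho-ERK was quantified by HTRF using d2- and cryptate-labelled antibodies; 0.2 uM trametinib served as minimum control.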

MKN1 cells, pERK = assay: as above; type: cell-based; conditions: Homo sapiens, MKN-1, 3 h, read-out: Inhibition (HTRF IC50 nM) of KRas-mediated Phosphorylation of ERK, MKN1
In short: as §1

KRas^G12R = target: T2, KRas^G12R (Homo sapiens, UniProt P01116, G12R); assay: KRas binding assay (TR-FRET displacement of Cy5 labelled tracer)
T2 construct: […]; biotin (biotinylated); purchased Accelegan Inc
T2 sequence (P01116 1-169 isoform P01116-2 G12R): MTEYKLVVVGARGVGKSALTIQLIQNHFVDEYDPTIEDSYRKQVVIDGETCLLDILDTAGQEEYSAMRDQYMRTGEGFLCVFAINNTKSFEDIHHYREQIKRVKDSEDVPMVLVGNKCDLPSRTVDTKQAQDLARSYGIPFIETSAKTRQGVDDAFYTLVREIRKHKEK
Procedure: as §6

KRas^G12D = target: T3, KRas^G12D (Homo sapiens, UniProt P01116, G12D); assay: as above
T3 construct: […]; biotin (biotinylated); purchased Accelegan Inc
T3 sequence (P01116 1-169 isoform P01116-2 G12D): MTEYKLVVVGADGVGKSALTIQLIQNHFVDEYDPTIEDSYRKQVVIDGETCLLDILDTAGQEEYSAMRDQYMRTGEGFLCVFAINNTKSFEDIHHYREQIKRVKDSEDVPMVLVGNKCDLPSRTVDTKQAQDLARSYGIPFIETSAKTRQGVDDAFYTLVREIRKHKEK
Procedure: as §6

[1] = system: NCI-H460 (Q61H) cells, phospho-ERK; assay: Inhibition of KRas-mediated phosphorylation of ERK (phospho-ERK/GAPDH antibody detection, LI-COR); type: cell-based; conditions: Homo sapiens, 3 hours
Procedure: (§2) AsPC-1 (G12D, ATCC CRL-1682), A549 (G12S, ATCC CCL-185), HCT116 (G13D, ATCC CCL-247) cells were grown in DMEM medium supplemented with 10% fetal bovine serum and Penicillin/Streptomycin. NCI-H358 (G12C, ATCC CRL-5807), NCI-H460 (Q61H, ATCC HTB-117), NCI-H727 (G12V, ATCC CRL-5815), MKN1 (WTdep, JCRB JCRB0252), PSN-1 (G12R, ATCC CRM-CRL-3211) cells were grown in RPMI medium supplemented with 10% fetal bovine serum, 10 mM HEPES, 10 mM Sodium Pyruvate, and Penicillin/Streptomycin. Cells were plated in black well clear bottom tissue culture treated 96 well plates (Corning, 3904) at a density of 20,000 cells/well and allowed to attach for 12-14 hours. Diluted compounds were then added in a final concentration of 0.5% DMSO. After 3 hours, 50 μL of 4.0% formaldehyde was added and the plates incubated at room temperature for 20 minutes. The plates were then dumped and permeabilized with 150 μL of ice cold 100% methanol for 10 minutes. Non-specific antibody binding to the plates was blocked using 100 μL Odyssey blocking buffer (LI-COR Biosciences, 927-60010) for 1 hour at room temperature.
(§3) The amount of phospho-ERK was determined using an antibody specific for the phosphorylated form of ERK and compared to the amount of GAPDH. Primary antibodies used for the detection were added as follows: Phospho-ERK (Cell Signaling CS-9101) diluted 1:500 and GAPDH (Millipore MAB374) diluted 1:5000 in Odyssey blocking buffer+0.05% Tween 20. The plates were incubated overnight at 4 C. The plates were washed 3× with 150 uL PBS+0.1% Tween 20.
(§4) Secondary antibodies used to visualize primary antibodies were added as follows: Goat Anti-Rabbit-800 (LI-COR, 926-32211) and Goat Anti-Mouse-680 (LI-COR, 926-68070) diluted 1:800 both in Odyssey blocking buffer+0.05% Tween 20 and were incubated for 1 hour at room temperature. The plates were washed 3× with 150 uL PBS+[…]. Plates were imaged dry on a Li—COR Odyssey CLX plate reader.
(§5) The phospho-ERK (Thr202/Tyr204) signal was normalized to the GAPDH signal for each well and percent of DMSO control values were calculated. IC50 values were generated using a 4-parameter fit of the dose response curve.

[2] = system: AsPC-1 (G12D) cells, phospho-ERK; assay: as above; type: cell-based; conditions: Homo sapiens, ASPC1, 3 hours
Procedure: as §2, §3, §4, §5

[3] = system: NCI-H727 (G12V) cells, phospho-ERK; assay: as above; type: cell-based; conditions: Homo sapiens, 3 hours
Procedure: as §2, §3, §4, §5

H460 cells, pERK = assay: Inhibition of KRas phosphorylation of ERK (Cisbio HTRF Advanced pERK assay); type: cell-based; conditions: Homo sapiens, NCI-H460, 3 hrs, read-out: Inhibition (HTRF IC50 nM) of KRas-mediated Phosphorylation of ERK, H460
In short: as §1

ASPC1 cells, pERK = assay: as above; type: cell-based; conditions: Homo sapiens, ASPC1, 3 h, AsPC-1 cells, read-out: Inhibition (HTRF IC50 nM) of KRas-mediated Phosphorylation of ERK, AsPC-1
In short: as §1

HCT116 cells, pERK = assay: as above; type: cell-based; conditions: Homo sapiens, HCT-116, 3 hrs, read-out: Inhibition (HTRF IC50 nM) of KRas-mediated Phosphorylation of ERK, HCT116
In short: as §1

H727 cells, pERK = assay: as above; type: cell-based; conditions: Homo sapiens, NCI-H727, 3 h, read-out: Inhibition (HTRF IC50 nM) of KRas-mediated Phosphorylation of ERK, H727
In short: as §1

KRas^G13D = KRas^G13D (Homo sapiens, UniProt P01116, G13D); assay: biochemical
KRas^G13D, sequence (P01116 1-169 isoform P01116-2 G13D): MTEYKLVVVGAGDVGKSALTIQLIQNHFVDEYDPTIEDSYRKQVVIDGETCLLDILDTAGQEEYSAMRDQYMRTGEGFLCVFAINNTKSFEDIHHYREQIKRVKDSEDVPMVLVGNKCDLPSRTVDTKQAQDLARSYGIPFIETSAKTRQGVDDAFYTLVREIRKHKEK
Procedure: as §6

KRas^G12A = target: T4, KRas^G12A (Homo sapiens, UniProt P01116, G12A); assay: KRas binding assay (TR-FRET displacement of Cy5 labelled tracer)
T4 construct: […]; biotin (biotinylated); purchased Accelegan Inc
T4 sequence (P01116 1-169 isoform P01116-2 G12A): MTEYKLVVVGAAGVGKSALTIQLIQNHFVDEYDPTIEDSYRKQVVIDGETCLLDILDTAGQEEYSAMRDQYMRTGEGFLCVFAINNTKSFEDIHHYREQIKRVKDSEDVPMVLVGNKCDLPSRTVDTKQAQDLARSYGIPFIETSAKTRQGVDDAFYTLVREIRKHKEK
Procedure: as §6

KRas^G12S = target: T5, KRas^G12S (Homo sapiens, UniProt P01116, G12S); assay: as above
T5 construct: […]; biotin (biotinylated); purchased Accelegan Inc
T5 sequence (P01116 1-169 isoform P01116-2 G12S): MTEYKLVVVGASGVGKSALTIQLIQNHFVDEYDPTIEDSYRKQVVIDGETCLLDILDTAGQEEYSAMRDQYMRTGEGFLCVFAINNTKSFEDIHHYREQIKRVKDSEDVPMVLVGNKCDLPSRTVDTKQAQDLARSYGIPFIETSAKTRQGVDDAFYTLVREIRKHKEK
Procedure: as §6

KRas^G12C = KRas^G12C (Homo sapiens, UniProt P01116, G12C); assay: biochemical
KRas^G12C, sequence (P01116 1-169 isoform P01116-2 G12C): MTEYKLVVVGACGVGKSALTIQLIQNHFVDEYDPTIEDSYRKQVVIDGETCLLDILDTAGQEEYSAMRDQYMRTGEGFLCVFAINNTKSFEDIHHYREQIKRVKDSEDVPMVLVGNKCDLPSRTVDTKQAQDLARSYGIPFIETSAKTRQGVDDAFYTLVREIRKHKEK
Procedure: as §6

KRas^Q61H = KRas^Q61H (Homo sapiens, UniProt P01116, Q61H); assay: biochemical
KRas^Q61H, sequence (P01116 1-169 isoform P01116-2 Q61H): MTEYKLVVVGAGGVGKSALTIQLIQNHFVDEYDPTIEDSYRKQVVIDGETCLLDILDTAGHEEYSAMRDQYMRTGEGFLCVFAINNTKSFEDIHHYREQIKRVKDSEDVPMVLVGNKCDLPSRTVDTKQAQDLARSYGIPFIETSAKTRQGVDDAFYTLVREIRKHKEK
Procedure: as §6

KRas^WT = target: T6, KRas^WT (Homo sapiens, UniProt P01116); assay: KRas binding assay (TR-FRET displacement of Cy5 labelled tracer)
T6 construct: […]; biotin (biotinylated); purchased Accelegan Inc
T6 sequence (P01116 1-169 isoform P01116-2): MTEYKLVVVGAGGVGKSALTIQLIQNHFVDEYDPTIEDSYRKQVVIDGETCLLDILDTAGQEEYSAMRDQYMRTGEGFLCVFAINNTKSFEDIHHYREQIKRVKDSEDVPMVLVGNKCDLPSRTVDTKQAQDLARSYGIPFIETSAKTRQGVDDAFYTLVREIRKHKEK
Procedure: as §6

T1 sequence (P01116 1-169 isoform P01116-2 G12V): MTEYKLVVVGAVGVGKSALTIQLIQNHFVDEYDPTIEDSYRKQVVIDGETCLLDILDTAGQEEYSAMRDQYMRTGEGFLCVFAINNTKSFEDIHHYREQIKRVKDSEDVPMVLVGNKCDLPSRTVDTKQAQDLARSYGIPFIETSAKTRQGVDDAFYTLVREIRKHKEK

SMILES | IC50 (KRas^G12V) [nM] | IC50 (PSN1 cells, pERK) [nM] | IC50 (MKN1 cells, pERK) [nM] | IC50 (KRas^G12R) [nM] | IC50 (KRas^G12D) [nM] | IC50 [1] [nM] | IC50 [2] [nM] | IC50 [3] [nM] | IC50 (H460 cells, pERK) [nM] | IC50 (ASPC1 cells, pERK) [nM] | IC50 (HCT116 cells, pERK) [nM] | IC50 (H727 cells, pERK) [nM] | IC50 (KRas^G13D) [nM] | IC50 (KRas^G12A) [nM] | IC50 (KRas^G12S) [nM] | IC50 (KRas^G12C) [nM] | IC50 (KRas^Q61H) [nM] | IC50 (KRas^WT) [nM]
CCc1c(F)ccc2cc(O)cc(N3CCc4c(nc(OC[C@@]56CCCN5C[C@H](F)C6)nc4N4CCCn5nc(N)cc5C4)C3)c12 [Example 18, 4-(4-(2-amino-7,8-dihydro-4H-pyrazolo[1,5-a][1,4]diazepin-5(6H)-yl)-2-(((2R,7aS)-2-fluorohexahydro-1H-pyrrolizin-7a-yl)methoxy)-5,6-dihydropyrido[3,4-d]pyrimidin-7(8H)-yl)-5-ethyl-6-fluoronaphthalen-2-ol] | ≤ 2 | ≥ 10000 | 22 | ≤ 2 | ≤ 2 | 317 | 182 | 503 |  |  |  |  |  |  |  |  |  | 
Nc1cc2n(n1)CCCN(c1nc(OC[C@@]34CCCN3C[C@H](F)C4)nc3c1CCN(c1cc(O)cc4ccc(F)c(Br)c14)C3)C2 [Example 212, 4-(4-(2-amino-7,8-dihydro-4H-pyrazolo[1,5-a][1,4]diazepin-5(6H)-yl)-2-(((2R,7aS)-2-fluorohexahydro-1H-pyrrolizin-7a-yl)methoxy)-5,6-dihydropyrido[3,4-d]pyrimidin-7(8H)-yl)-5-bromo-6-fluoronaphthalen-2-ol] | ≤ 2 | ≥ 10000 | 61 | ≤ 2 | ≤ 2 |  |  |  | 545 | 111 | 1110 | 268 |  |  |  |  |  | 
C[C@@]1(O)CCCN(c2nc(OC[C@@]34CCCN3C[C@H](F)C4)nc3c2CCN(c2cc(O)cc4ccc(F)c(Cl)c24)C3)C1 [Example 68, (R)-1-(7-(8-chloro-7-fluoro-3-hydroxynaphthalen-1-yl)-2-(((2R,7aS)-2-fluorohexahydro-1H-pyrrolizin-7a-yl)methoxy)-5,6,7,8-tetrahydropyrido[3,4-d]pyrimidin-4-yl)-3-methylpiperidin-3-ol] | ≤ 2 | 2260 | 71 | 3 | ≤ 2 |  |  |  | 421 | 112 | 1170 | 423 |  |  |  |  |  | 
CCc1c(F)ccc2cc(O)cc(N3CCc4c(nc(OC[C@@]56CCCN5C[C@H](F)C6)nc4N4CC5CC(O)CC4C5)C3)c12 (stereo partly drawn) [Example 35, 6-(7-(8-ethyl-7-fluoro-3-hydroxynaphthalen-1-yl)-2-(((2R,7aS)-2-fluorohexahydro-1H-pyrrolizin-7a-yl)methoxy)-5,6,7,8-tetrahydropyrido[3,4-d]pyrimidin-4-yl)-6-azabicyclo[3.2.1]octan-3-ol] | 52 | 5720 | 159 | ≤ 2 | 7 | 1430 | 2360 | 1620 |  |  |  |  |  |  |  |  |  | 
CCc1c(F)ccc2cc(O)cc(N3CCc4c(nc(OC[C@@]56CCCN5C[C@H](F)C6)nc4N4CCCC(O)(C(F)F)C4)C3)c12 (stereo partly drawn) [Example 32, 3-(difluoromethyl)-1-(7-(8-ethyl-7-fluoro-3-hydroxynaphthalen-1-yl)-2-(((2R,7aS)-2-fluorohexahydro-1H-pyrrolizin-7a-yl)methoxy)-5,6,7,8-tetrahydropyrido[3,4-d]pyrimidin-4-yl)piperidin-3-ol] | ≤ 2 | 1540 | 31 | 3 | ≤ 2 | 381 | 624 | 1090 |  |  |  |  |  |  |  |  |  | 
CCc1c(F)ccc2cc(O)cc(N3CCc4c(nc(OC[C@@]56CCCN5C[C@H](F)C6)nc4N4CCCCCC(S(C)(=O)=O)C4)C3)c12 (stereo partly drawn) [Example 36, 5-ethyl-6-fluoro-4-(2-(((2R,7aS)-2-fluorotetrahydro-1H-pyrrolizin-7a(5H)-yl)methoxy)-4-(3-(methylsulfonyl)azocan-1-yl)-5,8-dihydropyrido[3,4-d]pyrimidin-7(6H)-yl)naphthalen-2-ol] | ≤ 2 | ≥ 10000 | 37 | 5 | 5 | 731 | 1760 | 1730 |  |  |  |  |  |  |  |  |  | 
CCc1c(F)ccc2cc(O)cc(N3CCc4c(nc(OC[C@@]56CCCN5C[C@H](F)C6)nc4N4CCC(c5[nH]ncc5N)C4)C3)c12 (stereo partly drawn) [Example 26, 4-(4-(3-(4-amino-1H-pyrazol-5-yl)pyrrolidin-1-yl)-2-(((2R,7aS)-2-fluorohexahydro-1H-pyrrolizin-7a-yl)methoxy)-5,6-dihydropyrido[3,4-d]pyrimidin-7(8H)-yl)-5-ethyl-6-fluoronaphthalen-2-ol] | 4 |  |  | 5 | 110 | 3260 | 10000 | 3120 |  |  |  |  | 34 | 7 | 10 | 7 | 22 | 24
C[C@@]1(O)CCCN(c2nc(OC[C@@]34CCCN3C[C@H](F)C4)nc3c2CCN(c2cc(O)cc4ccc(F)c(Br)c24)C3)C1 [Example 222, (R)-1-(7-(8-bromo-7-fluoro-3-hydroxynaphthalen-1-yl)-2-(((2R,7aS)-2-fluorotetrahydro-1H-pyrrolizin-7a(5H)-yl)methoxy)-5,6,7,8-tetrahydropyrido[3,4-d]pyrimidin-4-yl)-3-methylpiperidin-3-ol] | ≤ 2 | 2820 | 37 | ≤ 2 | ≤ 2 |  |  |  | 352 | 179 | 672 | 530 |  |  |  |  |  | 
CCc1c(F)ccc2cc(O)cc(N3CCc4c(nc(OC[C@@]56CCCN5C[C@H](F)C6)nc4N4CCCC5(CNC(=O)C5)C4)C3)c12 (stereo partly drawn) [Example 197, 7-(7-(8-ethyl-7-fluoro-3-hydroxynaphthalen-1-yl)-2-(((2R,7aS)-2-fluorohexahydro-1H-pyrrolizin-7a-yl)methoxy)-5,6,7,8-tetrahydropyrido[3,4-d]pyrimidin-4-yl)-2,7-diazaspiro[4.5]decan-3-one] | ≤ 2 | 1690 | 12 | ≤ 2 | ≤ 2 |  |  |  | 285 | 136 | 499 | 313 |  |  |  |  |  | 
